Legend:
[1] = tested on: MOLP-8 cells; assay: MOLP-8 cell proliferation assay (alamarBlue); assay type: cell-based; details: inhibition of cell proliferation, 120 hours, human multiple myeloma cell line
Procedure: (§1) In accordance with the invention, the ability of the substances to inhibit cell proliferation was determined Cell viability was determined by means of the alamarBlue® reagent (Invitrogen) in a Victor X3 Multilabel Reader (Perkin Elmer). The excitation wavelength was 530 nm and the emission wavelength […].
The MOLP-8 cells (DSMZ, ACC 569) were sown at a concentration of 4000 cells/well in 100 μl of growth medium (RPMI1640, 20% FCS) on 96-well microtitre plates.
(§2) After overnight incubation at 37° C., the fluorescence values were determined (CI values). Then the plates were treated with various substance dilutions (1E-5 M, 3E-6 M, 1E-6 M, 3E-7 M, 1E-7 M, 3E-8 M, 1E-8 M) and incubated at 37° C. over 96 hours (MOLM-13, B16F10 cells) or 120 hours (MOLP-8 cells). Subsequently, the fluorescence values were determined (CO values). For the data analysis, the CI values were subtracted from the CO values and the results were compared between cells which had been treated with various dilutions of the substance or only with buffer solution. The IC50 values (substance concentration needed for 50% inhibition of cell proliferation) were calculated therefrom.
MOLP-8 human multiple myeloma cell line

[2] = target: T1, BRD4 Bromo Domain 2 [BRD4(2)] (Homo sapiens, UniProt O60885); assay: BRD4(2)/acetylated peptide H4 binding assay (TR-FRET); details: inhibition of interaction between His6-tagged BRD4(2) (amino acids 357-445) and acetylated histone H4 peptide
T1 construct: N-terminally His6-tagged BRD4(2) (amino acids 357-445); made in house; host or cells: E. coli
Source text: Protein-Protein Interaction Assay: BRD4/Acetylated Peptide H4 Binding Assay
2. Assay Description for BRD4 Bromo Domain 2 [BRD4(2)]
To assess the BRD4(2) binding strength of the substances described in this application, the ability thereof to inhibit the interaction between BRD4(2) and acetylated histone H4 in a dose-dependent manner was quantified.
For this purpose, a time-resolved fluorescence resonance energy transfer (TR-FRET) assay was used, which measures the binding between N-terminally His6-tagged BRD4(2) (amino acids 357-445) and a synthetic acetylated histone H4 (Ac-H4) peptide with sequence SGRGK(Ac)GGK(Ac)GLGK(Ac)GGAK(Ac)RHRKVLRDNGSGSK-biotin. The recombinant BRD4(2) protein produced in house according to Filippakopoulos et al., Cell, 2012, 149:214-231 was expressed in E. coli and purified by means of (Ni-NTA) affinity and (Sephadex G-75) size exclusion chromatography. The Ac-H4 peptide can be purchased, for example, from Biosyntan (Berlin, Germany).
In the assay, typically 11 different concentrations of each substance (0.1 nM, 0.33 nM, 1.1 nM, 3.8 nM, 13 nM, 44 nM, 0.15 μM, 0.51 μM, 1.7 μM, 5.9 μM and 20 μM) were analysed as duplicates on the same microtitre plate. For this purpose, 100-fold concentrated solutions in DMSO were prepared by serial dilutions (1:3.4) of a 2 mM stock solution into a clear, 384-well microtitre plate (Greiner Bio-One, Frickenhausen, Germany). From this, 50 nl were transferred into a black test plate (Greiner Bio-One, Frickenhausen, Germany). The test was started by the addition of 2 μl of a 2.5-fold concentrated BRD4(2) solution (final concentration typically 100 nM in the 5 μl of reaction volume) in aqueous assay buffer [50 mM HEPES pH 7.5, 50 mM sodium chloride (NaCl); 50 mM potassium fluoride (KF); 0.25 mM CHAPS and 0.05% serum albumin (BSA)] to the substances in the test plate. This was followed by a 10-minute incubation step at 22° C. for the pre-equilibration of putative complexes between BRD4(2) and the substances.
The mixture was then incubated in the dark at 22° C. for one hour and then at 4° C. for at least 3 hours and for no longer than overnight. The formation of BRD4(2)/Ac-H4 complexes was determined by the measurement of the resonance energy transfer from the streptavidin-Eu chelate to the anti-6His-XL665 antibody present in the reaction. For this purpose, the fluorescence emission was measured at 620 nm and 665 nm after excitation at 330-350 nm in a TR-FRET measuring instrument, for example a Rubystar or Pherastar (both from BMG Lab Technologies, Offenburg, Germany) or a Viewlux (Perkin-Elmer). The ratio of the emissions at 665 nm and at 622 nm was taken as an indicator of the amount of BRD4(2)/Ac-H4 complexes formed.
The data (ratios) obtained were normalized, with 0% inhibition corresponding to the mean from the measurements for a set of controls (typically 32 data points) in which all the reagents were present. In these, in place of test substances, 50 nl of DMSO (100%) were used Inhibition of 100% corresponded to the mean from the measurements for a set of controls (typically 32 data points) in which all the reagents except BRD4(2) were present. The IC50 was determined by regression analysis based on a 4-parameter equation (minimum, maximum, IC50, Hill; Y=max+(min−max)/(1+(X/IC50)Hill)).

[3] = tested on: MOLM-13 cells; assay: MOLM-13 cell proliferation assay (alamarBlue); assay type: cell-based; details: inhibition of cell proliferation, 96 hours, human AML cell line
Procedure: as §1
The MOLM-13 cells (DSMZ, ACC 554) were sown at a concentration of 4000 cells/well in 100 μl of growth medium (RPMI1640, 10% FCS) on 96-well microtitre plates.
as §2
MOLM-13 human AML (acute myeloid leukaemia) cell line

Compound	IC50 [1]	IC50 [2]	IC50 [3]
C[C@@H]1C(=O)N(C)c2ccc(Nc3ccc(S(=O)(=O)N4CCOCC4)cc3)cc2N1Cc1ccccc1 [Example 13, (3R)-4-benzyl-1,3-dimethyl-6-{[4-(morpholin-4-ylsulphonyl)phenyl]amino}-3,4-dihydroquinoxalin-2(1H)-one]	98 nM	51 nM	223 nM
C[C@@H]1C(=O)N(C)c2ccc(Nc3ccc(C(=O)N4CCOCC4)cc3)cc2N1C1CCCC1 [Example 6, (3R)-4-cyclopentyl-1,3-dimethyl-6-{[4-(morpholin-4-ylcarbonyl)phenyl]amino}-3,4-dihydroquinoxalin-2(1H)-one]	271 nM	80 nM	698 nM
COc1ccc(CN2c3cc(Nc4ccc(C(=O)N5CCOCC5)cc4)ccc3N(C)C(=O)[C@H]2C)cc1 [Example 18, (3R)-4-(4-methoxybenzyl)-1,3-dimethyl-6-{[4-(morpholin-4-ylcarbonyl)phenyl]amino}-3,4-dihydroquinoxalin-2(1H)-one]	148 nM	111 nM	257 nM
C[C@@H]1C(=O)N(C)c2ccc(Nc3ccc(S(=O)(=O)N4CCOCC4)cc3)cc2N1C1CCOCC1 [Example 47, (3R)-1,3-dimethyl-6-{[4-(morpholin-4-ylsulphonyl)phenyl]amino}-4-(tetrahydro-2H-pyran-4-yl)-3,4-dihydroquinoxalin-2(1H)-one]	496 nM	134 nM	407 nM
C[C@@H]1C(=O)N(C)c2ccc(Nc3ccc(S(=O)(=O)N(C)C)cc3)cc2N1C1CCCCCC1 [Example 45, 4-{[(3R)-4-cycloheptyl-1,3-dimethyl-2-oxo-1,2,3,4-tetrahydroquinoxalin-6-yl]amino}-N,N-dimethylbenzenesulphonamide]	1100 nM	83 nM	1340 nM
C[C@@H]1C(=O)N(C)c2ccc(Nc3ccc(S(=O)(=O)N4CCN(C)CC4)cc3)cc2N1C1CCOCC1 [Example 48, (3R)-1,3-dimethyl-6-({4-[(4-methylpiperazin-1-yl)sulphonyl]phenyl}amino)-4-(tetrahydro-2H-pyran-4-yl)-3,4-dihydroquinoxalin-2(1H)-one]	803 nM	112 nM	1250 nM
C[C@@H]1C(=O)N(C)c2ccc(Nc3ccc(C(=O)NC4CCN(C)CC4)cc3)cc2N1Cc1ccccc1 [Example 11, 4-{[(3R)-4-benzyl-1,3-dimethyl-2-oxo-1,2,3,4-tetrahydroquinoxalin-6-yl]amino}-N-(1-methylpiperidin-4-yl)benzamide]	102 nM	107 nM	364 nM
COc1cc(C(=O)NC2CCN(C)CC2)ccc1Nc1ccc2c(c1)N(C1CCOCC1)[C@H](C)C(=O)N2C [Example 36, 4-{[(3R)-1,3-dimethyl-2-oxo-4-(tetrahydro-2H-pyran-4-yl)-1,2,3,4-tetrahydroquinoxalin-6-yl]amino}-3-methoxy-N-(1-methylpiperidin-4-yl)benzamide]	675 nM	441 nM	1080 nM
C[C@@H]1C(=O)N(C)c2ccc(Nc3ccc(C(=O)NC4CCN(C)CC4)cc3)cc2N1C1CCOCC1 [Example 26, 4-{[(3R)-1,3-dimethyl-2-oxo-4-(tetrahydro-2H-pyran-4-yl)-1,2,3,4-tetrahydroquinoxalin-6-yl]amino}-N-(1-methylpiperidin-4-yl)benzamide]	1030 nM	391 nM	1580 nM
COc1ccc(CN2c3cc(Nc4ccc(C(=O)NC5CCN(C)CC5)cc4)ccc3N(C)C(=O)[C@H]2C)cc1 [Example 17, 4-{[(3R)-4-(4-methoxybenzyl)-1,3-dimethyl-2-oxo-1,2,3,4-tetrahydroquinoxalin-6-yl]amino}-N-(1-methylpiperidin-4-yl)benzamide]	69 nM	83 nM	315 nM
C[C@@H]1C(=O)N(C)c2ccc(Nc3ccc(S(=O)(=O)N(C)C)cc3)cc2N1C1CCOCC1 [Example 46, 4-{[(3R)-1,3-dimethyl-2-oxo-4-(tetrahydro-2H-pyran-4-yl)-1,2,3,4-tetrahydroquinoxalin-6-yl]amino}-N,N-dimethylbenzenesulphonamide]	365 nM	148 nM	719 nM
C[C@@H]1C(=O)N(C)c2ccc(Nc3ccc(C(=O)NCC4COC4)cc3)cc2N1C1CCOCC1 [Example 28, 4-{[(3R)-1,3-dimethyl-2-oxo-4-(tetrahydro-2H-pyran-4-yl)-1,2,3,4-tetrahydroquinoxalin-6-yl]amino}-N-(oxetan-3-ylmethyl)benzamide]	1800 nM	513 nM	2760 nM
CC(C)NC(=O)c1ccc(Nc2ccc3c(c2)N(C2CCCC2)[C@H](C)C(=O)N3C)cc1 [Example 7, 4-{[(3R)-4-cyclopentyl-1,3-dimethyl-2-oxo-1,2,3,4-tetrahydroquinoxalin-6-yl]amino}-N-isopropylbenzamide]	637 nM	159 nM	1440 nM
COc1cc(C(=O)N2CCN(C)CC2)ccc1Nc1ccc2c(c1)N(C1CCOCC1)[C@H](C)C(=O)N2C [Example 38, (3R)-6-({2-methoxy-4-[(4-methylpiperazin-1-yl)carbonyl]phenyl}amino)-1,3-dimethyl-4-(tetrahydro-2H-pyran-4-yl)-3,4-dihydroquinoxalin-2(1H)-one]	758 nM	382 nM	1790 nM
C[C@@H]1C(=O)N(C)c2ccc(Nc3ccc(C(=O)NCC4COC4)cc3)cc2N1Cc1ccccc1 [Example 9, 4-{[(3R)-4-benzyl-1,3-dimethyl-2-oxo-1,2,3,4-tetrahydroquinoxalin-6-yl]amino}-N-(oxetan-3-ylmethyl)benzamide]	139 nM	62 nM	366 nM
C[C@@H]1C(=O)N(C)c2ccc(Nc3ccc(S(=O)(=O)N(C)C)cc3)cc2N1C1CCCC1 [Example 3, 4-{[(3R)-4-cyclopentyl-1,3-dimethyl-2-oxo-1,2,3,4-tetrahydroquinoxalin-6-yl]amino}-N,N-dimethylbenzenesulphonamide]	301 nM	85 nM	289 nM
C[C@@H]1C(=O)N(C)c2ccc(Nc3ccc(C(=O)NC4CCN(C)CC4)cc3)cc2N1C1CCCCCC1 [Example 23, 4-{[(3R)-4-cycloheptyl-1,3-dimethyl-2-oxo-1,2,3,4-tetrahydroquinoxalin-6-yl]amino}-N-(1-methylpiperidin-4-yl)benzamide]	1020 nM	152 nM	1260 nM
